Measurements as given in patent US20230278972A1, “SUBSTITUTED HALOALKYL SULFONANILIDE HERBICIDES” (FMC Corporation, priority 2020, published 2023).

Legend:
Type in all cases: in vivo
[1] = test system: Oat, Wild (wild oat, Avena fatua); experiment: Test A1 preemergence, Oat, Wild; details: 125 g ai/ha, 0 to 100 scale (0 no effect, 100 complete control)
In short: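 Seeds were first planted into a blend of loam soil and sand and given a preemergence directed soil spray. In parallel, pots of the same soil were sown for postemergence application once plants reached 2 to 10 cm and the one- to two-leaf stage. Both used surfactant-containing non-phytotoxic solvent formulations.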

[2] = test system: blackgrass (Alopecurus myosuroides); experiment: Test A1 postemergence, blackgrass; details: 0 to 100 scale (0 no effect, 100 complete control); for Blackgrass plant response rating: 31 g ai/ha, postemergence; for Plant response rating, Blackgrass: Postemergence, 125 g ai/ha, 10 days
In short: (§1)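 Both timings started from seed in a loam-sand blend. Preemergence pots got a directed soil application immediately; postemergence pots were sprayed when seedlings had one or two leaves and stood 2–10 cm. Each compound was prepared in a non-phytotoxic solvent plus surfactant.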

[3] = test system: Ryegrass, Italian (Italian ryegrass, Lolium multiflorum); experiment: Test A1 postemergence, Ryegrass, Italian; details: 0 to 100 scale (0 no effect, 100 complete control); for Ryegrass, Italian plant response rating: 31 g ai/ha, postemergence; for Plant response rating, Ryegrass, Italian: Postemergence, 125 g ai/ha, 10 days
In short: as §1

[4] = test system: Foxtail, Giant (giant foxtail, Setaria faberi); experiment: Test A1 postemergence, Foxtail, Giant; details: 0 to 100 scale (0 no effect, 100 complete control); for Foxtail, Giant plant response rating: 31 g ai/ha, postemergence; for Plant response rating, Foxtail, Giant: Postemergence, 125 g ai/ha, 10 days
In short: as §1

SMILES	Plant response rating, Oat, Wild [1]	Blackgrass plant response rating [2]	Plant response rating, Blackgrass [2]	Ryegrass, Italian plant response rating [3]	Plant response rating, Ryegrass, Italian [3]	Foxtail, Giant plant response rating [4]	Plant response rating, Foxtail, Giant [4]
COc1cccc2c1C(=O)N(c1cc(N(COC(=O)C(C)(C)C)S(=O)(=O)Cl)c(C)cc1C)C2 [Compound 413]	0	0	0	0	0	0	10
CCOc1cccc2c1C(=O)N(c1cc(N(COC(=O)C(C)(C)C)S(=O)(=O)Cl)c(C)cc1C)C2 [Compound 414]	30	0	30	0	0	0	0
Cc1cc(C)c(N2Cc3cccc(Br)c3C2=O)cc1NS(=O)(=O)Cl [Compound 415]	80	0	40	0	60	0	30
